Test results reported in patent US11951134B2, “Cationic platelet lysate compositions and related methods” (North Carolina State University, priority 2019, dated 2024).

Assays:
[1] = system: all isolates used in this study; test: Antimicrobial susceptibility by microbroth dilution; format: cell-based
Text: The laboratory strain of Staphylococcus aureus, ATCC 25923, was used to initially screen the different PRP formulations. Significant findings were then validated using clinical isolates derived from cases of equine septic arthritis collected by the University of Pennsylvania School of Veterinary Medicine New Bolton Center Clinical Microbiology Laboratory and processed in accordance with their Standard Operating Procedures. In vitro antimicrobial susceptibility testing and microbial identification was performed using the ARIS Sensititre™ system, using the equine (EQUIN1F) antimicrobial susceptibility panel for veterinary organisms. Bacteria were saved in frozen stocks on glycerol at −80° C. Blood agar plates were streaked from frozen stocks and used for in vitro experiments for a maximum of 1 month. […]
Synovial fluid pooled from three horses (n=3) was infected at 1×10^5 CFU/mL for Staphylococcus aureus (ATCC 25923) or for each clinical isolate (Staphylococcus aureus, Streptococcus zooepidemicus, Pseudomonas aeruginosa, and Escherichia coli) and incubated for 2 hours at 37° C. in a microaerophilic chamber on a shaker at 120 rpm to allow for […] formation. […] Bacterial load was measured using serial dilutions and plate counting of colony forming units. […]

[2] = system: S. aureus (ATCC 25923) infected tarsocrural joint; test: Equine S. aureus infectious arthritis model (BIO-PLY 5 mL + 500 mg amikacin vs 500 mg amikacin + saline, intra-articular daily for 7 days); format: in vivo, horse; conditions: end-term (day 24; legend b39: day 23-24); BIO-PLY + amikacin group vs amikacin alone group, n=6 each
Text: Subsequently, the in vitro findings were translated into an in vivo equine model of S. aureus-induced infectious arthritis. Using this model, it was hypothesized that the combination of BIO-PLY and amikacin will decrease bacterial burden and improve outcome parameters in an equine S. aureus infectious arthritis model compared to horses treated with amikacin alone. A highly concentrated (>50 fold), pooled PRP-L was generated from 8 healthy donor horses and processed to have the anionic fraction, including fibrinogen, removed and passed through a 10 kDa molecular weight cutoff filter to remove proteins […] termed BIO-PLY as stated above (IACUC protocol #16-189 of NC State University, Raleigh, N.C.). […]
All horses received systemic antimicrobials (potassium penicillin and gentamicin) for 10 days post-infection as well as a tapering course of phenylbutazone for the duration of the study. Physical examinations were performed daily and pain scores based on lameness, hock swelling, distal limb swelling, pain to palpation, and presence of heat were calculated at days 0-7, 14 and 21. […] Synovial fluid was collected on day 0-7 and assessed for total protein (TP), total nucleated cell count (TNCC), cellular differential, and bacterial load determination, as well as biomarker analysis (EMD Millipore MILLIPLEX MAP Equine Cytokine/Chemokine Magnetic Bead Panel). […]

`NCC[C@H](O)C(=O)N[C@@H]1C[C@H](N)[C@@H](O[C@H]2O[C@H](CN)[C@@H](O)[C@H](O)[C@H]2O)[C@H](O)[C@H]1O[C@H]1O[C@H](CO)[C@@H](O)[C@H](N)[C@H]1O` [amikacin] was tested, and the “susceptibility of isolates to amikacin” value [1] was “susceptible” and the “bacteria within the synovial tissue at end-term” value [2] was 80.95±58.77 CFU/g tissue.
